Laboratory results: publication PMC5843810, “18th European Symposium on Radiopharmacy and Radiopharmaceuticals” (EJNMMI Radiopharmacy and Chemistry, 2016)
Read-outs that look alike come from different tables or passages of the source. Values belong to the compound of their own block, whether it stands above or below them.

Assays:
[1] = tested on: B16-F10 pulmonary metastatic melanoma; details: NMRI mice, B16-F10 lung metastases, 1h-post injection PET, n=8
Method: (§1) Materials and methods: [^18F]MEL050 was synthesized using a one-step bromine-for-fluorine nucleophilic heteroaromatic substitution. Briefly, [^18F]MEL050 was prepared from a bromo-precursor, using no-carrier-added 18F-KF-Kryptofix 222 (dimethylformamide, 150°C, 6 min), followed by preparative HPLC purification (C18 column (300x7.8 mm, 7 μm), isocratic elution with acetonitrile/20 mM ammonium bicarbonate (20:80, v/v), 3.0 ml/min) and cartridge-reformulation (Sep-Pak® Plus C18 environmental) of the collected fraction. Radiochemical and chemical purity, stability and specific activity measurements were monitored using analytical HPLC. Chemical identity of the labeled compound [^18F]MEL050 was assessed by co-injection with non-radioactive standard MEL050. Experimental model of pulmonary metastatic melanoma was obtained by IV injection of B16-F10 cells in NMRI mice. Mice (n=8) were imaged 15 days after inoculation, using INVEON microPET/CT device (Siemens), after IV injection of 0.36±0.04MBq/g of [^18F]MEL050. Dynamic and static acquisitions were acquired from time of injection to 2h after tracer injection. The maximum percentage of [^18F]MEL050 Injected Dose per g of lung tissue (%ID/g Max) was determined using ROIs manually drawn on 1h-post injection PET images, and correlated to ex-vivo findings.

[2] = over 6 h, analytical HPLC
Method: as §1

MCHR1 = MCHR1 (Rattus norvegicus, UniProt P97639); details: rats, n=3
Sequence of MCHR1 (P97639 whole entry): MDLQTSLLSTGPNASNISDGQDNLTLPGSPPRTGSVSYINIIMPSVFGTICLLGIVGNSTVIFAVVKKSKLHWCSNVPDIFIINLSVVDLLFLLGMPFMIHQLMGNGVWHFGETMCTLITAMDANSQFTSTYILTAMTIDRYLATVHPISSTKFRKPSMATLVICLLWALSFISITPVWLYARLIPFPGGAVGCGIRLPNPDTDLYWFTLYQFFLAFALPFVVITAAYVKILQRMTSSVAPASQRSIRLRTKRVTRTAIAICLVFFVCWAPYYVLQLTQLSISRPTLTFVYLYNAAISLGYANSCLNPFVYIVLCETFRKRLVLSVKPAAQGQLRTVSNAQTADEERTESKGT
Method: Materials and methods: In vivo experiments were conducted in naïve male Sprague Dawley rats. For small-animal PET/CT/MR experiments, rats were anesthetized by isoflurane. 25min after [^18F]FE@SNAP iv injection (47.8±1MBq; SA: 19.7±6GBq/μmol), vehicle (baseline group, n=3) or 15mg/kg SNAP-7941 (blocking group, n=3) were administered through the tail vein. 75min after tracer injection, the rats were sacrificed. Radioactivity concentrations in brain were calculated and expressed as SUVs. In another set of experiments, [^18F]FE@SNAP (51.3±26MBq; SA: 36.1±28GBq/μmol) as well as vehicle (baseline group, n=3) or 15mg/kg SNAP-7941 (blocking group, n=3) were injected into conscious freely moving rats via a permanent catheter implanted into the jugular vein, thus excluding an influence of anaesthesia. 45min after tracer application, rats were sacrificed, the brain was removed and cut for ex vivo autoradiography. Subsequently, brain slices were put on Phosphor Imager plates for exposure and analyzed with a Cyclone Phosphor Imager the following day. Regions of interest (ROIs) were drawn for the hypothalamic region, the ventricle and a non-target region.

[3] = CHI(IAM) non-specific binding measurement; type: physicochemical; details: experimental non-specific binding measurement
From the text: Materials and methods: Similarly to the Ligand Efficiency (LE) index, we explored the usefulness of the Ligand Specific Efficiency index (LSE), which we defined as the ratio between affinity (expressed as e.g. pIC50 or pKd), and the logarithmic value of the experimental non-specific binding measurement, CHI(IAM).^[Jiang] LSE provides a measure of affinity, normalized to non-specific binding.

[4] = molecular target: prostacyclin receptor (IPR) (Homo sapiens, UniProt P43119); experiment: Affinity for prostacyclin receptor (IPR); type: binding
Sequence of prostacyclin receptor (IPR) (P43119 whole entry, species assumed): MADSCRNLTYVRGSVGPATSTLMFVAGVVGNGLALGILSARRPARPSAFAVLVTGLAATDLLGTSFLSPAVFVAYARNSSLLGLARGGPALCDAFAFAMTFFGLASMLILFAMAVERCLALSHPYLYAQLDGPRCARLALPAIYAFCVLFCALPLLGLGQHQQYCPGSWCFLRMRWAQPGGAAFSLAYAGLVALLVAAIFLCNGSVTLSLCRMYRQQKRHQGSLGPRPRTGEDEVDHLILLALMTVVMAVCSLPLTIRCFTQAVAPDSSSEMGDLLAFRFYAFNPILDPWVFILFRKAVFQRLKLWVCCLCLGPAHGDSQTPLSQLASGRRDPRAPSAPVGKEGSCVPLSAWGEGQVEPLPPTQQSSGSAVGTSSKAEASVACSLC
From the text: This concept was applied to the development of a prostacyclin receptor (IPR) tracer.

[5] = tested on: U-87 MG and SKOV-3 tumours; details: 1 h after injection
Method: The in vitro binding characteristics of FPyPEGCBT-c(RGDfK) were analysed by standard binding assay in U-87 MG and SKOV-3 cancer models and its selectivity towards integrins by siRNA depletions. Its preclinical potential was studied in mice bearing subcutaneous tumours by ex vivo biodistribution studies and in vivo microPET/CT imaging.

in vivo = details: C57BL/6, mouse, αvβ3-positive melanoma tumor, iv, total radioactivity
Method: Materials and methods: cRGDfK was functionalized with N3CH2COOH and N3PEG7COOH at ε-amino group of lysine. […] Biodistribution study of the two radiotracers was carried out in C57BL/6 mice bearing αvβ3-positive melanoma tumors. The radioactive preparation (~3.7 MBq/animal, 100 μL) was injected intravenously through the lateral tail vein. At different time intervals after injection (30, 60, and 180 min), the animals (n = 4/time point) were sacrificed and the relevant organs excised for measurement of retained activity.

PSMA = molecular target: T1, PSMA (Homo sapiens, UniProt Q04609); experiment: Competitive binding assay on PSMA-positive LNCaP cells against 68Ga-PSMA-10; details: against 68Ga-PSMA-10, cold reference compounds
T1 construct: endogenous in cells; host or cells: LNCaP
T1 sequence (Q04609 whole entry): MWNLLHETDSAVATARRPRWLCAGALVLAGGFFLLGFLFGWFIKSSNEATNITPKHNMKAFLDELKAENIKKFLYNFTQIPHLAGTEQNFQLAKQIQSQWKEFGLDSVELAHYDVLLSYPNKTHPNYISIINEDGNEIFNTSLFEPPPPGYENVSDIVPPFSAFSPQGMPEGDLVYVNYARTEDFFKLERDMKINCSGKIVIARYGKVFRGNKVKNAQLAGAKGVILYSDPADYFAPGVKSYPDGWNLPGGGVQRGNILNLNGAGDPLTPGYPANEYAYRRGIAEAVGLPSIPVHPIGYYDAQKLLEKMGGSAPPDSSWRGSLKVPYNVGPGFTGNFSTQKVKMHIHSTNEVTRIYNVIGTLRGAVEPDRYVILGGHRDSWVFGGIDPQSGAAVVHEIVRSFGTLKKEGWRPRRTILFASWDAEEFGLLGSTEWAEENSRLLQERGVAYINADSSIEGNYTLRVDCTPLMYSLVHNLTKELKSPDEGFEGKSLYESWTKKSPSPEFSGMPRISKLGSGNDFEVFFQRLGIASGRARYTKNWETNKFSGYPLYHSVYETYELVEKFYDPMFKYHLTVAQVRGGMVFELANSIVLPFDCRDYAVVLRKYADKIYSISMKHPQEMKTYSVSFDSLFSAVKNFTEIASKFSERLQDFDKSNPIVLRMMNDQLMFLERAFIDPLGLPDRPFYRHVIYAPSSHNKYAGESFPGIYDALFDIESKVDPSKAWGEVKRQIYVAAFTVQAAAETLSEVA
Method: (§2) Materials and methods: The PSMA binding motif Glu-NH-CO-NH-Lys was synthesized by a well-established method (4) using solid phase chemistry and subsequently an amino acid linker was built up by fmoc-based solid phase peptide synthesis (SPPS). The non-radioactive reference compounds were also prepared analogically and eventually conjugated by 6-fluoronicotinic acid. After separation from the resin and deprotection the peptidomimetics were labeled using the TFP-ester of 6-[^18F]fluoronicotinic acid as prosthetic group. The Ki values of all compounds were determined by competitive binding assays on PSMA-positive LNCaP cells against ^68Ga-PSMA-10 (5) using the respective cold reference compounds. Additionally, the cellular internalization of the radiofluorinated ligands was determined.

LNCaP cells = experiment: Cellular internalization of radiofluorinated PSMA ligands; type: cell-based; details: in vitro
Method: as §2

[6] = type: in vivo; details: healthy mice, 2 min
From the text: (§3) Materials and methods: All the chemicals and reagents used in the experiments were obtained from commercial sources and used without any further purification. Synthesis of 5-cyano-N-(4-(4-methylpiperazine-1-yl)-2-(4-methylpiperidin-1-yl)phenyl)furan-2-carboxamide and 5-cyano-N-(2-(4-methylpiperidine-1-yl)-4-(piperazine-1-yl)phenyl)furan-2-carboxamide molecules were done according to literature methods available with slight modifications for radiolabeling experiments^3. The [^11C]-methyl triflate reacts with the precursor in presence of a base at room temperature for 2 minutes gives the carbon-11 radiolabeled [^11C]BA-1 which was purified by using semi-preparative reversed-phase high pressure liquid chromatography (RP-HPLC). The peak corresponding the reference compound will be collected and checked for the purity using analytical RP-HPLC. Baseline biodistribution study was performed at 2, 10, 30 and 60 min. respectively. Blocking experiment (10 mg/kg cold compound) was performed at 30 min time point in healthy female adult mice n=3 and compared with vehicle treated batch. In vitro autoradiography experiments were carried on rat brain slices by incubating tracer and cold blocking solution. MicroPET imaging studies were performed on a Focus™ 220 microPET scanner with female rats.

CSF-1R = molecular target: T2, CSF-1R (Rattus norvegicus, UniProt Q00495); type: in vivo; details: female rats
T2 construct: from tissue; host or cells: living female rats (brain)
T2 sequence (Q00495 20-978): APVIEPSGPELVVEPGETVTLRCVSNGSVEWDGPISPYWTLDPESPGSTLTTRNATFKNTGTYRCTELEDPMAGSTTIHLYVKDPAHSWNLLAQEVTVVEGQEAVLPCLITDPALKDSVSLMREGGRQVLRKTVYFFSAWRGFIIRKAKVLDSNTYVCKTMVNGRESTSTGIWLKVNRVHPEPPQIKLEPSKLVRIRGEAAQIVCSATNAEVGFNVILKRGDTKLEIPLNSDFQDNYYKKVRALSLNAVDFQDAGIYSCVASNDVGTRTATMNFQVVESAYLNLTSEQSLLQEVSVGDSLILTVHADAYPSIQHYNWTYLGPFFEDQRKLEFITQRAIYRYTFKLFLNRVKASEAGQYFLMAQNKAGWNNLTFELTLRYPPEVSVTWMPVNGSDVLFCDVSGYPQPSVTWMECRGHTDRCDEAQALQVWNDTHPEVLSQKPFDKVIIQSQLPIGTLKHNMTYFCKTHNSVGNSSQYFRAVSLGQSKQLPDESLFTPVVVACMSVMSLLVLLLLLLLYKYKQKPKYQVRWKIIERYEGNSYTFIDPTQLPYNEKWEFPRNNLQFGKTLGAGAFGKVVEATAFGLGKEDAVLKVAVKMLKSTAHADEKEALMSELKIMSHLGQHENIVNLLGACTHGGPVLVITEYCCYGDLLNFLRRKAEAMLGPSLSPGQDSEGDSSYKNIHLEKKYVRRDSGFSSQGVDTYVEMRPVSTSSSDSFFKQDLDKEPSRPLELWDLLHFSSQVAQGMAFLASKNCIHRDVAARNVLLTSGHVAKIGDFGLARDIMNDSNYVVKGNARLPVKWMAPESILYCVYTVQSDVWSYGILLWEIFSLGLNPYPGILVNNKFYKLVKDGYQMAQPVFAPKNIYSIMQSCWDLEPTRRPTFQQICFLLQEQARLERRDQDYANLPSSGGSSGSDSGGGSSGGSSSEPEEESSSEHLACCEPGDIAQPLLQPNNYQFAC
From the text: as §3

[7] = PET/CT imaging in nude mice bearing U87MG xenograft tumor; type: in vivo; details: mouse, 90 min post injection
Method: Materials and methods: The PET imaging properties of [^68Ga]FSC(succ-RGD)3 were studied in nude mice bearing M21 human melanoma xenografts and human glioblastoma U87MG xenograft tumor. A parallel PET imaging of ^68GaNODAGA-RGD in same mouse bearing U87MG xenograft tumor was performed as a comparison.

[8] = Plasma protein binding (acetonitrile precipitation, radioTLC); type: in vitro ADME, mice; details: mouse plasma
Method: (§4) Material and methods: [^18F]Amylovis® was synthesized by nucleophilic substitution of the tosyl group of the precursor. Thirty five healthy male Balb/C mice of 10-12 weeks were divided into […] of 5 animals each and injected with similar doses of [^18F]Amylovis® through a lateral tail vein. Blood samples were collected and the animals were sacrificed at 5, 15, 30, 45, 70 and 180 minutes. Organs of interest were removed and washed with saline. Radioactivity of blood, plasma, urine, faeces, brain, cerebellum, heart, liver, stomach, spleen, bowel, colon, left kidney, muscle, bone and tail was measured in a well counter. To assess protein binding, plasma samples were diluted with acetonitrile and centrifuged at 4000 g. Pellets of proteins and supernatants were separated and their radioactivity measured in a well counter. RadioTLC analysis of plasma were performed for the same purpose in silicagel 60 and mobile phase of acetonitrile/water (95/5). 20μL of each supernatant was analysed by HPLC-RP using a C18 column and acetonitrile/water (75/25) as mobile phase to identify plasma metabolites. Pharmacokinetic parameters (AUC, t1/2, Cmax, Cl, Vss) were calculated using non-compartmental analysis (NCA). Dynamic PET/CT images of healthy and transgenic APPSwe/PS1dE9 mice were acquired for 2.5 h after i.v. administration. […]

[9] = Biodistribution and pharmacokinetics in healthy Balb/C mice; type: in vivo
Method: as §4

Compound: CCN(CC)CCNC(=O)c1ccc([18F])nc1 [[18F]MEL050]
- %ID/g Max in lung tumours [1]: 4.7±2.6%
- product stability (RCP) [2]: > 98%

Compound: COCC1=C(C(=O)OCC[18F])C(c2ccc(F)c(F)c2)N(C(=O)NCCCN2CCC(c3cccc(NC(C)=O)c3)CC2)C(=O)N1 (stereo not drawn) [[18F]FE@SNAP]
- SUV in the ventricular system, blocking group (MCHR1; 15mg/kg SNAP-7941 25min after tracer): 0.34±0.07 SUV
- SUV in the ventricular system, baseline group (MCHR1; vehicle 25min after tracer): 0.73±0.11 SUV

Compound: CC(C)Oc1ccc(Cc2ccc(NC3=NCCN3)cc2)cc1.Cl [Ro1138452]
- CHI(IAM) [3]: 58
- Ki [4]: 0.23 nM

Compound: [18F]FPyPEGCBT-c(RGDfK) (head to tail)
- tumour uptake, SKOV-3 [5]: 2.4 %ID/g
- tumour uptake, U-87 MG [5]: 2.9 %ID/g

Compound: N=C(N)NCCC[C@@H]1NC(=O)[C@H](CCCCNC(=O)CCOCCOCCOCCOCCOCCOCCOCCn2cc(C[C@H](N)C(=O)O)nn2)NC(=O)[C@@H](Cc2ccccc2)NC(=O)[C@H](CC(=O)O)NC(=O)CNC1=O [99mTc(CO)3-Pra-Tz-PEG7-cRGDfK, metal not drawn]
- tissue uptake at 0.5 h (in vivo): 4.11 ± 0.51 %ID/g

Compound: N=C(N)NCCC[C@@H]1NC(=O)[C@H](CCCCNC(=O)Cn2cc(C[C@H](N)C(=O)O)nn2)NC(=O)[C@@H](Cc2ccccc2)NC(=O)[C@H](CC(=O)O)NC(=O)CNC1=O [99mTc(CO)3-Pra-Tz-CH2-cRGDfK, metal not drawn]
- tissue uptake at 0.5 h (in vivo): 3.01 ± 0.77 %ID/g

Compound: PSMA-1007
- Ki (PSMA): 6 nM
- internalization ratio (LNCaP cells): about 70%

- lung uptake [6]: 14 % ID
- tracer uptake into the brain [6]: 4 % ID
- brain SUV, baseline (CSF-1R; baseline microPET): 1.2 SUV
- brain SUV, with blocking (CSF-1R; blocking with cold compound): 2 SUV
Compound: CC1CCN(c2cc(N3CCN(C)CC3)ccc2NC(=O)c2ccc(C#N)o2)CC1 [[11C]-BA1, 5-cyano-N-(4-(4-methylpiperazine-1-yl)-2-(4-methylpiperidin-1-yl)phenyl)furan-2-carboxamide]

Compound: C/C1=C/C(=O)N(O)CCC[C@H](NC(=O)CCC(=O)NCCCC[C@@H]2NC(=O)[C@@H](Cc3ccccc3)NC(=O)[C@H](CC(=O)O)NC(=O)CNC(=O)[C@H](CCCNC(=N)N)NC2=O)C(=O)OCC/C(C)=C\C(=O)N(O)CCC[C@H](NC(=O)CCC(=O)NCCCC[C@@H]2NC(=O)[C@@H](Cc3ccccc3)NC(=O)[C@H](CC(=O)O)NC(=O)CNC(=O)[C@H](CCCNC(=N)N)NC2=O)C(=O)OCC/C(C)=C\C(=O)N(O)CCC[C@H](NC(=O)CCC(=O)NCCCC[C@@H]2NC(=O)[C@@H](Cc3ccccc3)NC(=O)[C@H](CC(=O)O)NC(=O)CNC(=O)[C@H](CCCNC(=N)N)NC2=O)C(=O)OCC1 [[68Ga]FSC(succ-RGD)3, metal not drawn]
- tissue to tissue ratio at […] ([7]; tumour and kidneys, read-out: tumor/kidneys ratio): 1.3
- tissue to tissue ratio at […] ([7]; tumour and muscle, read-out: tumor/muscle ratio): 4.9

Compound: COc1ccc2cc(CCC[18F])ccc2c1 [[18F]Amylovis®, [^18F]-2-(3-fluoropropyl)-6-methoxynaphtalene]
- protein binding [8]: No significant protein binding
- Plasma T1/2 ([9]; Balb/C mice, i.v., non-compartmental analysis): 37 min
- blood brain barrier crossing ([9]; mice): crossed blood brain barrier
